Measured values taken from PubChem BioAssay AID1745844 (Carcinogenic Potency Database (CPDB), 2022).
Values joined by “and” are separate entries in the source; they are usually repeats but may differ in a detail not shown here. Equal values may be shown once. Active and inactive are the calls of the source. No rule for the calls is given here.

Tested on: rodent lifetime carcinogenesis bioassay, tumor incidence TD50
Assay: chronic cancer bioassays in animals – CPDB, compiled studies (AID 1745844)

With O=[N+]([O-])c1cc(N(CCO)CCO)ccc1NCCO the TD50 (mouse, strain B6C3F1, females, in feed, site: any site (literature study), lesion: several types, types named in the paper, dosed 104 weeks, study length 105 weeks) was 42000 mg/kg/day (inactive), the TD50 (mouse, strain B6C3F1, females, in feed, site: liver, lesion: hepatocellular adenoma + hepatocellular carcinoma + neoplastic nodule, dosed 104 weeks, study length 105 weeks) was 19000 mg/kg/day and the TD50 (mouse, strain B6C3F1, males, in feed, site: all sites, lesion: malignant lymphoma, histiocytic type + malignant lymphoma, mixed type + malignant lymphoma, lymphocytic type, dosed 104 weeks, study length 105 weeks) was 4040 mg/kg/day. It also gave a TD50 (mouse, strain B6C3F1, males, in feed, site: all sites, lesion: malignant lymphoma, lymphocytic type, dosed 104 weeks, study length 105 weeks) of 5450 mg/kg/day, a TD50 (mouse, strain B6C3F1, males, in feed, site: any site (literature study), lesion: several types, types named in the paper, dosed 104 weeks, study length 105 weeks) of 5020 mg/kg/day and a TD50 (mouse, strain B6C3F1, males, in feed, site: liver, lesion: hepatocellular adenoma + hepatocellular carcinoma + neoplastic nodule, dosed 104 weeks, study length 105 weeks) of 6550 mg/kg/day. For the same compound, the TD50 (mouse, strain B6C3F1, males, in feed, site: skin + subcutaneous tissue, lesion: fibrosarcoma + fibroma, dosed 104 weeks, study length 105 weeks) was 970 mg/kg/day (inactive), the TD50 (rat, strain Fischer 344, females, in feed, site: any site (literature study), lesion: several types, types named in the paper, dosed 103 weeks, study length 104 weeks) was 3.13e+06 mg/kg/day and the TD50 (rat, strain Fischer 344, females, in feed, site: liver, lesion: hepatocellular adenoma + hepatocellular carcinoma + neoplastic nodule, dosed 103 weeks, study length 104 weeks) was 8150 mg/kg/day. For the same compound, the TD50 (rat, strain Fischer 344, females, in feed, site: liver, lesion: hepatocellular carcinoma + neoplastic nodule, dosed 103 weeks, study length 104 weeks) was 8150 mg/kg/day (inactive), the TD50 (rat, strain Fischer 344, males, in feed, site: liver, lesion: hepatocellular adenoma + hepatocellular carcinoma + neoplastic nodule, dosed 103 weeks, study length 104 weeks) was 20300 mg/kg/day and the TD50 (rat, strain Fischer 344, males, in feed, site: thyroid gland, lesion: c-cell carcinoma, dosed 103 weeks, study length 104 weeks) was 1990 mg/kg/day (inactive).

Work on Nc1cc(Cl)c(N)c(Cl)c1 yielded a TD50 (mouse, strain B6C3F1, females, in feed, site: any site (literature study), lesion: several types, types named in the paper, dosed 103 weeks, study length 111 weeks) of 801 mg/kg/day, a TD50 (mouse, strain B6C3F1, females, in feed, site: liver, lesion: hepatocellular adenoma + hepatocellular carcinoma + neoplastic nodule, dosed 103 weeks, study length 111 weeks) of 883 mg/kg/day and a TD50 (mouse, strain B6C3F1, females, in feed, site: liver, lesion: hepatocellular adenoma + hepatocellular carcinoma, dosed 103 weeks, study length 111 weeks) of 883 mg/kg/day. It also gave a TD50 (mouse, strain B6C3F1, females, in feed, site: liver, lesion: hepatocellular carcinoma, dosed 103 weeks, study length 111 weeks) of 2030 mg/kg/day, a TD50 (mouse, strain B6C3F1, females, in feed, site: lung, lesion: alveolar/bronchiolar adenoma + alveolar/bronchiolar carcinoma, dosed 103 weeks, study length 111 weeks) of 42100 mg/kg/day and a TD50 (mouse, strain B6C3F1, males, in feed, site: any site (literature study), lesion: several types, types named in the paper, dosed 103 weeks, study length 111 weeks) of 1730 mg/kg/day. For the same compound, the TD50 (mouse, strain B6C3F1, males, in feed, site: liver, lesion: hepatocellular adenoma + hepatocellular carcinoma + neoplastic nodule, dosed 103 weeks, study length 111 weeks) was 737 mg/kg/day, the TD50 (mouse, strain B6C3F1, males, in feed, site: liver, lesion: hepatocellular adenoma + hepatocellular carcinoma, dosed 103 weeks, study length 111 weeks) was 737 mg/kg/day and the TD50 (mouse, strain B6C3F1, males, in feed, site: liver, lesion: hepatocellular adenoma, dosed 103 weeks, study length 111 weeks) was 933 mg/kg/day. The carcinogen call (rat, strain Fischer 344, females, in feed, site: any site (literature study), lesion: several types, types named in the paper, dosed 103 weeks, study length 111 weeks) was “negative (inactive)”, the TD50 (rat, strain Fischer 344, females, in feed, site: liver, lesion: hepatocellular adenoma + hepatocellular carcinoma + neoplastic nodule, dosed 103 weeks, study length 111 weeks) was 2960 mg/kg/day and the TD50 (rat, strain Fischer 344, males, in feed, site: any site (literature study), lesion: several types, types named in the paper, dosed 103 weeks, study length 111 weeks) was 914 mg/kg/day (inactive). It also gave a TD50 (rat, strain Fischer 344, males, in feed, site: liver, lesion: hepatocellular adenoma + hepatocellular carcinoma + neoplastic nodule, dosed 103 weeks, study length 111 weeks) of 340 mg/kg/day.

For ClC(Cl)(Cl)C(Cl)(Cl)Cl, the TD50 (mouse, strain B6C3F1, females, by gavage, site: any site (literature study), lesion: several types, types named in the paper, dosed 78 weeks, study length 90 weeks) was 1190 mg/kg/day, the TD50 (mouse, strain B6C3F1, females, by gavage, site: liver, lesion: hepatocellular adenoma + hepatocellular carcinoma + neoplastic nodule, dosed 78 weeks, study length 90 weeks) was 873 mg/kg/day and the TD50 (mouse, strain B6C3F1, females, by gavage, site: liver, lesion: hepatocellular carcinoma, dosed 78 weeks, study length 90 weeks) was 873 mg/kg/day and 319 mg/kg/day. It also gave a TD50 (mouse, strain B6C3F1, females, by gavage, site: lung, lesion: alveolar/bronchiolar adenoma + alveolar/bronchiolar carcinoma, dosed 78 weeks, study length 90 weeks) of 6950 mg/kg/day, a TD50 (mouse, strain B6C3F1, males, by gavage, site: any site (literature study), lesion: several types, types named in the paper, dosed 78 weeks, study length 90 weeks) of 675 mg/kg/day and a TD50 (mouse, strain B6C3F1, males, by gavage, site: liver, lesion: hepatocellular adenoma + hepatocellular carcinoma + neoplastic nodule, dosed 78 weeks, study length 90 weeks) of 585 mg/kg/day. The TD50 (mouse, strain B6C3F1, males, by gavage, site: liver, lesion: hepatocellular carcinoma, dosed 78 weeks, study length 90 weeks) was 585 mg/kg/day and 359 mg/kg/day, the TD50 (mouse, strain B6C3F1, males, by gavage, site: lung, lesion: alveolar/bronchiolar adenoma + alveolar/bronchiolar carcinoma, dosed 78 weeks, study length 90 weeks) was 23600 mg/kg/day and the carcinogen call (rat, strain Fischer 344, females, by gavage, site: any site (literature study), lesion: several types, types named in the paper, dosed 103 weeks, study length 105 weeks) was “negative (inactive)”. For the same compound, the TD50 (rat, strain Fischer 344, females, by gavage, site: liver, lesion: hepatocellular adenoma + hepatocellular carcinoma + neoplastic nodule, dosed 103 weeks, study length 105 weeks) was 276000 mg/kg/day, the TD50 (rat, strain Fischer 344, males, by gavage, site: adrenal gland + adrenal medulla, lesion: pheochromocytoma, benign + pheochromocytoma benign, bilateral + pheochromocytoma, complex + pheochromocytoma, malignant, dosed 103 weeks, study length 105 weeks) was 8.02 mg/kg/day and the TD50 (rat, strain Fischer 344, males, by gavage, site: adrenal gland + adrenal medulla, lesion: pheochromocytoma, benign + pheochromocytoma benign, bilateral, dosed 103 weeks, study length 105 weeks) was 9.05 mg/kg/day. It also gave a TD50 (rat, strain Fischer 344, males, by gavage, site: any site (literature study), lesion: several types, types named in the paper, dosed 103 weeks, study length 105 weeks) of 28 mg/kg/day, a TD50 (rat, strain Fischer 344, males, by gavage, site: kidney, lesion: adenoma + tubule adenoma + tubule carcinoma, dosed 103 weeks, study length 105 weeks) of 55.4 mg/kg/day and a TD50 (rat, strain Fischer 344, males, by gavage, site: kidney, lesion: tubule carcinoma, dosed 103 weeks, study length 105 weeks) of 159 mg/kg/day. For the same compound, the TD50 (rat, strain Fischer 344, males, by gavage, site: liver, lesion: hepatocellular adenoma + hepatocellular carcinoma + neoplastic nodule, dosed 103 weeks, study length 105 weeks) was 1340 mg/kg/day, the carcinogen call (rat, strain Osborne-Mendel, females, by gavage, site: any site (literature study), lesion: several types, types named in the paper, dosed 78 weeks, study length 111 weeks) was “negative (inactive)” and the carcinogen call (rat, strain Osborne-Mendel, males, by gavage, site: any site (literature study), lesion: several types, types named in the paper, dosed 78 weeks, study length 111 weeks) was “negative (inactive)”.

Work on N#[N+]c1cc(CCN)ccc1[O-] yielded a TD50 (rat, strain F344/DuCrj, males, in drinking water, site: oral cavity, lesion: squamous-cell carcinoma, dosed 116 weeks, study length 116 weeks) of 37.6 mg/kg/day.

Cc1c(-c2cnccn2)ssc1=S was tested, and the carcinogen call (rat, strain Charles River CD (Sprague-Dawley), females, by gavage, site: liver, lesion: one or several types, types not named, dosed 52 weeks, study length 52 weeks) was “negative (inactive)” and the carcinogen call (rat, strain Charles River CD (Sprague-Dawley), males, by gavage, site: liver, lesion: one or several types, types not named, dosed 52 weeks, study length 52 weeks) was “negative (inactive)”.

With OCC(O)CO the TD50 (rat, strain Long-Evans, both sexes, in feed, site: any site (literature study), lesion: several types, types named in the paper, dosed 105 weeks, study length 105 weeks) was 38300 mg/kg/day (inactive) and 12300 mg/kg/day (inactive).

With C=C1C(CCl)(CCl)C2(Cl)C(Cl)C(Cl)C1(Cl)C2(Cl)Cl (centres undefined) the TD50 (mouse, strain B6C3F1, females, in feed, site: liver, lesion: hepatocellular adenoma, dosed 78 weeks, study length 104 weeks) was 91.6 mg/kg/day, the TD50 (mouse, strain B6C3F1, females, in feed, site: liver, lesion: hepatocellular adenoma, dosed 80 weeks, study length 90 weeks) was 11.4 mg/kg/day and 11.6 mg/kg/day and the TD50 (mouse, strain B6C3F1, females, in feed, site: liver, lesion: hepatocellular carcinoma, dosed 78 weeks, study length 104 weeks) was 66.2 mg/kg/day. The TD50 (mouse, strain B6C3F1, females, in feed, site: liver, lesion: hepatocellular carcinoma, dosed 80 weeks, study length 90 weeks) was 273 mg/kg/day, the TD50 (mouse, strain B6C3F1, females, in feed, site: liver, lesion: several types, pooled by NCI/NTP, dosed 80 weeks, study length 90 weeks) was 10.6 mg/kg/day and 10.8 mg/kg/day and the TD50 (mouse, strain B6C3F1, females, in feed, site: liver, lesion: several types, types named in the paper, dosed 78 weeks, study length 104 weeks) was 37 mg/kg/day. For the same compound, the TD50 (mouse, strain B6C3F1, males, in feed, site: liver, lesion: hepatocellular adenoma, dosed 78 weeks, study length 104 weeks) was 21.2 mg/kg/day, the TD50 (mouse, strain B6C3F1, males, in feed, site: liver, lesion: hepatocellular adenoma, dosed 80 weeks, study length 90 weeks) was 6.12 mg/kg/day and 5.76 mg/kg/day and the TD50 (mouse, strain B6C3F1, males, in feed, site: liver, lesion: hepatocellular carcinoma, dosed 78 weeks, study length 104 weeks) was 27.5 mg/kg/day. The TD50 (mouse, strain B6C3F1, males, in feed, site: liver, lesion: hepatocellular carcinoma, dosed 80 weeks, study length 90 weeks) was 248 mg/kg/day and 168 mg/kg/day, the TD50 (mouse, strain B6C3F1, males, in feed, site: liver, lesion: several types, pooled by NCI/NTP, dosed 80 weeks, study length 90 weeks) was 4.2 mg/kg/day and 4.08 mg/kg/day and the TD50 (mouse, strain B6C3F1, males, in feed, site: liver, lesion: several types, types named in the paper, dosed 78 weeks, study length 104 weeks) was 13.6 mg/kg/day. The TD50 (rat, strain Osborne-Mendel, females, in feed, site: any site (literature study), lesion: several types, types named in the paper, dosed 80 weeks, study length 108 weeks) was 596 mg/kg/day, the TD50 (rat, strain Osborne-Mendel, females, in feed, site: thyroid gland, lesion: follicular-cell adenoma, dosed 80 weeks, study length 108 weeks) was 209 mg/kg/day and the TD50 (rat, strain Osborne-Mendel, males, in feed, site: any site (literature study), lesion: several types, types named in the paper, dosed 80 weeks, study length 108 weeks) was 1020 mg/kg/day. It also gave a TD50 (rat, strain Osborne-Mendel, males, in feed, site: liver, lesion: hepatocellular adenoma + hepatocellular carcinoma + neoplastic nodule, dosed 80 weeks, study length 108 weeks) of 949 mg/kg/day, a TD50 (rat, strain Osborne-Mendel, males, in feed, site: liver, lesion: neoplastic nodule, dosed 80 weeks, study length 108 weeks) of 92.1 mg/kg/day and a TD50 (rat, strain Osborne-Mendel, males, in feed, site: thyroid gland, lesion: follicular-cell adenoma + follicular-cell carcinoma, dosed 80 weeks, study length 108 weeks) of 58.9 mg/kg/day.

CCOCCc1c(-c2ccccc2)nc(N)n2ncnc12 showed a TD50 (rat, strain Charles River CD (Sprague-Dawley), females, in feed, site: liver, lesion: hepatocellular adenoma, dosed 97 weeks, study length 105 weeks) of 307 mg/kg/day, a TD50 (rat, strain Charles River CD (Sprague-Dawley), females, in feed, site: liver, lesion: hepatocellular carcinoma, dosed 97 weeks, study length 105 weeks) of 646 mg/kg/day and a TD50 (rat, strain Charles River CD (Sprague-Dawley), females, in feed, site: mammary gland, lesion: adenoma, dosed 97 weeks, study length 105 weeks) of 3010 mg/kg/day. For the same compound, the TD50 (rat, strain Charles River CD (Sprague-Dawley), females, in feed, site: mammary gland, lesion: carcinoma, dosed 97 weeks, study length 105 weeks) was 669 mg/kg/day, the TD50 (rat, strain Charles River CD (Sprague-Dawley), females, in feed, site: thyroid gland, lesion: adenoma, dosed 97 weeks, study length 105 weeks) was 9710 mg/kg/day and the TD50 (rat, strain Charles River CD (Sprague-Dawley), males, in feed, site: liver, lesion: hepatocellular adenoma, dosed 97 weeks, study length 105 weeks) was 2530 mg/kg/day. The TD50 (rat, strain Charles River CD (Sprague-Dawley), males, in feed, site: liver, lesion: hepatocellular carcinoma, dosed 97 weeks, study length 105 weeks) was 4160 mg/kg/day, the TD50 (rat, strain Charles River CD (Sprague-Dawley), males, in feed, site: thyroid gland, lesion: adenoma, dosed 97 weeks, study length 105 weeks) was 11000 mg/kg/day and the TD50 (rat, strain Charles River CD (Sprague-Dawley), males, in feed, site: thyroid gland, lesion: carcinoma, dosed 97 weeks, study length 105 weeks) was 12400 mg/kg/day.
